For one assay, the system named is H358 cells. The experiment in a line: High-throughput proliferation (HTP) assay for H358 cells (CellTiter-Glo, 7 days). To be noted: Homo sapiens, NCI-H358, 168 h, read-out: H358 SMARCA2 IC50. The class given is cell-based. In a few lines:
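Cells were plated at 1,000 cells/well in RPMI 1640 + 10% HI-FBS + 1% pen/strep on pre-dispensed compound and incubated 7 days at 37 °C, 5% CO2. Viability was read as ATP luminescence with CellTiter-Glo after 30 min at RT. DMSO served as 0% and 10 µM doxorubicin as 100% inhibition for EC50/IC50.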
(In general: Cellular ATP, detected with luciferase, serves as a proxy for viable cell number.)

A further assay deals with A549 cells. The experiment in a line: High-throughput proliferation (HTP) assay for A549 cells (CellTiter-Glo, 7 days). The class given is cell-based. To be noted: Homo sapiens, 168 h, read-out: A549 SMARCA2 IC50. In a few lines: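 A549 cells plated at 62.5 cells/well in F12K + 10% HI-FBS onto pre-dispensed compound, grown 7 days at 37° C., 5% CO2. Viability by CellTiter-Glo luminescence after 30 min at RT; EC50/IC50 from DMSO (0%) and 10 μM Doxorubicin (100%) inhibition controls.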

The next assay has as its target FL-SMARCA4 (Homo sapiens, UniProt P51532). The experiment in a line: SMARCA4 ATPase activity assay (ADP-Glo, chicken mononucleosome substrate).
The target of assay [1] is T1, FL-SMARCA2 (full-length human SMARCA2 isoform 1) (Homo sapiens, UniProt P51531).
T1 construct: FLAG tag (YKDDDDK) (C); made in house; host or cells: Sf21 insect cells (baculovirus, pFastBacI)
T1 sequence (P51531 with tags, fused parts or gaps): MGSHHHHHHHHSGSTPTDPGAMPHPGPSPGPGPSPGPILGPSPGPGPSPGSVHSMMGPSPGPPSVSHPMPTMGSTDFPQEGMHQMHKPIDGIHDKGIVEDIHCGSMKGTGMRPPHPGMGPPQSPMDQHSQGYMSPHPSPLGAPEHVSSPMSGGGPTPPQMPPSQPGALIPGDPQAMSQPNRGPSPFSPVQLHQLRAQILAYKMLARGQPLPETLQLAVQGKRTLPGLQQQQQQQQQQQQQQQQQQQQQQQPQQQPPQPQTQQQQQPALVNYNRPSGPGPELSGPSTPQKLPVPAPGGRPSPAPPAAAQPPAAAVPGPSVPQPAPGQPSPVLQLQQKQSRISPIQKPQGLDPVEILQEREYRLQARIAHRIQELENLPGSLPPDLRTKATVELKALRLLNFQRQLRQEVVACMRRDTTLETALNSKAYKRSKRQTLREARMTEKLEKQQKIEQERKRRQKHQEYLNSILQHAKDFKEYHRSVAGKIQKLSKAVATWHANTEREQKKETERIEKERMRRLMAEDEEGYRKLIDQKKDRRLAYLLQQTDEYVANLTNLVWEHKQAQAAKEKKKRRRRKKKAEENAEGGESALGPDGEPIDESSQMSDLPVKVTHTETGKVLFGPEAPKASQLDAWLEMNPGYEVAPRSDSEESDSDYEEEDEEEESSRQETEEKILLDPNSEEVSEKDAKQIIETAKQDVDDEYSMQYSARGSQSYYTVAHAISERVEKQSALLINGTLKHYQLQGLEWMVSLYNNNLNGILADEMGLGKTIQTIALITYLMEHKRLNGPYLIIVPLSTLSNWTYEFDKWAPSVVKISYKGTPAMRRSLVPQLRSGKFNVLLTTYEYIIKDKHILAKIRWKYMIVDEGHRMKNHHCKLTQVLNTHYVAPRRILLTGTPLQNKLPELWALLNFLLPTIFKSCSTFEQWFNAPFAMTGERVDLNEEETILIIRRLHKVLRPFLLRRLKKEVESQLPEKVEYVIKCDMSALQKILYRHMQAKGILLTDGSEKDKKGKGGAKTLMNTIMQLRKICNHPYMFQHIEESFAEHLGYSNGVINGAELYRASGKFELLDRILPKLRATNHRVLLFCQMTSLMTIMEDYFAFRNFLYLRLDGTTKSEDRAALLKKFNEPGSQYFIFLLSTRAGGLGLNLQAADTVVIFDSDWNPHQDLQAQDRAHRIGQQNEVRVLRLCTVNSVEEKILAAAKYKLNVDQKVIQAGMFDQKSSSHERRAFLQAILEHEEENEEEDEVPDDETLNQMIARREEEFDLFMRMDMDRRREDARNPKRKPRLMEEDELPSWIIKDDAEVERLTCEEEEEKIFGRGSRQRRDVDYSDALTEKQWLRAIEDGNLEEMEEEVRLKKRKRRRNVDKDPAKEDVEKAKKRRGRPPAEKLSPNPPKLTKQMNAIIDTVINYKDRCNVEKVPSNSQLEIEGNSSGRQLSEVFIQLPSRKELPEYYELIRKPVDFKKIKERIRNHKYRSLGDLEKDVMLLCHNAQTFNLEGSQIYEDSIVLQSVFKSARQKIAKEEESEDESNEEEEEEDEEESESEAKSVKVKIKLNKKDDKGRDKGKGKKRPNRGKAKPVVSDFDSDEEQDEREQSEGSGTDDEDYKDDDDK
The experiment in a line: SMARCA2 ATPase activity assay (ADP-Glo, chicken mononucleosome substrate). Type of assay: biochemical. Conditions: ATPase assay, enzyme 5 nM, ATP 250 uM, chicken mononucleosome 10 nM, 30 min preincubation. A general note: ADP-Glo first removes unused ATP, then detects ADP through luciferase.

[2] abbreviates: Table 3d.1, read-out: FL-SMARCA2 IC>50.
[3] abbreviates: FL-SMARCA4 IC>50, Table 3c.2, ATPase assay, enzyme 5 nM, ATP 250 uM, chicken mononucleosome 10 nM, 30 min preincubation.

Each structure is given as a SMILES string. Like-named read-outs stand apart in the source and are kept apart here.

Chain of FL-SMARCA4 (P51532 whole entry, canonical isoform): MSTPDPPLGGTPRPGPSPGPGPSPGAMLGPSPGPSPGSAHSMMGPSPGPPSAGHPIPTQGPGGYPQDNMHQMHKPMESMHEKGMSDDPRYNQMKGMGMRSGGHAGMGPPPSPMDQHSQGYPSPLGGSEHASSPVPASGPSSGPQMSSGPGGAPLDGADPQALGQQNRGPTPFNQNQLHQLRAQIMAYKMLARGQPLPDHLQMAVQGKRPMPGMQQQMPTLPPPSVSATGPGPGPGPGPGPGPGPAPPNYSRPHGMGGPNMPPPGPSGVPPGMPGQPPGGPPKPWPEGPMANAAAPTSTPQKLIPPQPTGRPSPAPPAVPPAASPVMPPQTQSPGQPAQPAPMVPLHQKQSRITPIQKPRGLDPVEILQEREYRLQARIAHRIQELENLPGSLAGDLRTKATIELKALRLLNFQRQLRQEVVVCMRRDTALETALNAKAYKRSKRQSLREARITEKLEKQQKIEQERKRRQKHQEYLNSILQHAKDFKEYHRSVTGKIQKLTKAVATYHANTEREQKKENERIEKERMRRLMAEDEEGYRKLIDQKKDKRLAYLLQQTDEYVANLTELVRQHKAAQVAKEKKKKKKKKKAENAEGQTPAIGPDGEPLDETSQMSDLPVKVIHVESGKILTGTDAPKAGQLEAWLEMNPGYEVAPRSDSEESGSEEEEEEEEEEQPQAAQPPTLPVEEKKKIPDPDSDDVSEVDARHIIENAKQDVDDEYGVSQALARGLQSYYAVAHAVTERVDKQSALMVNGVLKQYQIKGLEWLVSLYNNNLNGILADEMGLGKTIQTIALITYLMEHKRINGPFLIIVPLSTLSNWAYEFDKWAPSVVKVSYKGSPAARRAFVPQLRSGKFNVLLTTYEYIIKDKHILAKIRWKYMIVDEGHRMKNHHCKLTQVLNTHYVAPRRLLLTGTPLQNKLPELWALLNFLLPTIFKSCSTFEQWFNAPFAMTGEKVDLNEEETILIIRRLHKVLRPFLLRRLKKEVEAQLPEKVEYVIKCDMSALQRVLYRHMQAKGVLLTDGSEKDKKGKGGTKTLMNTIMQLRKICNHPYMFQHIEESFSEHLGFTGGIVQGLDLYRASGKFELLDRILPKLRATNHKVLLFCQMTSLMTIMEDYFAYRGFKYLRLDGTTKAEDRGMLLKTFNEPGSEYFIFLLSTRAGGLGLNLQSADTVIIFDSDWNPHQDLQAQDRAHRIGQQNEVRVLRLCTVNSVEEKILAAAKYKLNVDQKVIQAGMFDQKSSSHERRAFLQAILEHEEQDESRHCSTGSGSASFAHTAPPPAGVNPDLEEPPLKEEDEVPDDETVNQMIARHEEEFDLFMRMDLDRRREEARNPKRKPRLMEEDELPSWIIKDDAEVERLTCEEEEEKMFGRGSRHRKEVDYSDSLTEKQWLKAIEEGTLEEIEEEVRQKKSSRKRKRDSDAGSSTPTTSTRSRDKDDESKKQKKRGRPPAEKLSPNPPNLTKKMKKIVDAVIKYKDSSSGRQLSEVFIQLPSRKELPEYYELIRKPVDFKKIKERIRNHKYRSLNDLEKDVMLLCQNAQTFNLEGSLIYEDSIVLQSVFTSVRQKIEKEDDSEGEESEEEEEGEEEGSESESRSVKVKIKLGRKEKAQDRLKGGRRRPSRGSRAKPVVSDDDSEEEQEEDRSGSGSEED
Protocol for FL-SMARCA4: Substrates. Chicken erythrocyte mononucleosomes were prepared from fresh chicken blood collected into anticoagulant and filtered through cheesecloth. The filtered chicken blood was diluted in buffer A (10 mM Tris-HCl, pH 7.4, 10 mM NaCl, 3 mM MgCl2) and centrifuged at 500 g for 15 minutes to collect the erythrocytes. Erythrocyte nuclei were harvested by resuspending the pellets in buffer A containing 0.3% NP-40 detergent. The mixture was stirred with a magnetic bar for 10 mins and centrifuged at 4000 g for 10 minutes. Resuspension, stirring and centrifugation was repeated twice more before the final nuclei pellet was resuspended in buffer A+0.3% NP-40 and stored at −80° C. until purification. For nucleosome purification, nuclei aliquots were rapidly thawed and washed five times with buffer B (10 mM Tris-HCl, pH 7.4, 1 mM CaCl2), 1 mM PMSF) and collected by centrifugation at 2800 g for 10 minutes. Pellets were resuspended in buffer B and treated with 100 U/mL micrococcal nuclease for 40 minutes at 37° C. The reaction was terminated by the addition of 2 mM EDTA and was centrifuged at 2800 g for 10 minutes. The nuclei were then lysed by resuspending the pellet in 1 mM EDTA and 1 mM PMSF and passing the mixture through a 22G needle 4 to 5 times. The solution was then centrifuged at 15,000 g for 20 minutes and the supernatant was collected. The remaining pellet was lysed through the syringe twice more and the supernatants were pooled after centrifugation. The pooled supernatants were further purified by size exclusion chromatography (GE Sephacryl S300 HR 50/100) in buffer C (10 mM HEPES, pH 7.5, 10 mM KCl, 1 mM EDTA, 1 mM PMSF, 10% glycerol). Fractions were analyzed by agarose gel electrophoresis and SDS-PAGE and fractions containing mononucleosomes were pooled and stored at −80° C.
The SMARCA2 or SMARCA4 ATPase assays were identical. The SMARCA2 or SMARCA4 ATPase assays were performed in a buffer consisting of 20 mM Bicine (pH 7.5), 10 mM KCl, 1 mM MgCl2, 1 mM TCEP, 0.005% BSG, and 0.002% Tween 20, prepared on the day of use. Compounds in 100% DMSO were 3-fold serially diluted to produce a 10 point curve for IC50 determination and 0.2 uL were transferred into polypropylene 384-well V-bottom plates (Greiner) using an Echo liquid handler (Labcyte). DMSO (0.2 uL) was added to Columns 11, 12, 23, 24, rows A-H for the maximum signal control and 0.2 uL doxorubicin, a known DNA intercalator, was added to columns 11, 12, 23, 24, rows I-P for the minimum signal control. The SMARCA2 or SMARCA4 enzyme (10 uL) was added to the compounds and allowed to incubate with the compounds for 30 min at room temperature. The SMARCA2 or SMARCA4 ATPase assay was initiated by the addition of 10 uL chicken mononucleosome and ATP mixture (final volume=20 uL). The final concentrations of the assay components were as follows: SMARCA2 or SMARCA4 was 5 nM, ATP was 250 uM, chicken mononucleosome was 10 nM, doxorubicin in the minimum signal control wells was 50 uM, and the DMSO concentration was 1%. 5 uL of the reaction mixture was transferred from the 384-well polypropylene plate to a white opaque polystyrene 384-well plate. At 60 minutes, the assays were terminated by the addition of 5 uL ADP-Glo™ Reagent (Promega). After 40 minutes, the luciferase reaction was initiated by the addition of 10 uL of Kinase Detection Reagent (Promega) and incubated for 1 hour. The ADP product generated from the SMARCA2 or SMARCA4 ATPase reaction was determined via luminescence intensity.

In the case of `O=C(Nc1cc(F)c(=O)n(CC(F)F)c1)c1cc(C#Cc2ccc3nncn3c2)c(Cl)s1` [Compound 91d], the IC50 was greater than 10000 nM with H358 cells, greater than 10000 nM in the assay on A549 cells, 69.8 nM against FL-SMARCA4 (FL-SMARCA4 IC50) and 22.9 nM in assay [1] (setting [2]).
As for `Cc1sc(C(=O)Nc2cc(F)c(=O)n(CC(F)F)c2)cc1C#CC1COC1` [Compound 92c], the IC50 in the assay with H358 cells is greater than 10000 nM; in the assay on A549 cells it was 2330 nM; against FL-SMARCA4 (setting [3]), 346 nM; in assay [1] (Table 3c.1), 120 nM.
Regarding `Cc1cc(C#Cc2cc(C(=O)Nc3cc(C#N)c(=O)n(CC(F)F)c3)sc2Cl)sn1` [Compound 92d], the IC50 was greater than 10000 nM with H358 cells, 1990 nM in the assay on A549 cells, 155 nM against FL-SMARCA4 (FL-SMARCA4 IC50) and 31.3 nM in assay [1] (setting [2]).
Regarding `Cn1cc(C#Cc2cc(C(=O)Nc3cc(C#N)c(=O)n(CC(F)F)c3)sc2Cl)cn1` [Compound 93d], the IC50 is greater than 10000 nM in the assay with H358 cells, 3930 nM in the assay on A549 cells, 147 nM against FL-SMARCA4 (FL-SMARCA4 IC50) and 43.1 nM in assay [1] (setting [2]).
`O=C(Nc1cc(F)c(=O)n(CC(F)F)c1)c1cc(/C=C/c2cccnc2)c(Cl)s1` [Compound 95c]: the IC50 with H358 cells is greater than 10000 nM; with A549 cells, greater than 10000 nM; on FL-SMARCA4 (setting [3]) it was 5710 nM; in assay [1] (Table 3c.1), 603 nM.
Take `O=C(Nc1cc(F)c(=O)n(CC(F)F)c1)c1cc(C#Cc2cnc3n2CCOC3)c(Cl)s1` [Compound 95d]: the IC50 in the assay on H358 cells was greater than 10000 nM; in the assay on A549 cells, greater than 10000 nM; against FL-SMARCA4 (FL-SMARCA4 IC50), 1060 nM; in assay [1] (setting [2]) it was 334 nM.
In the case of `O=C(Nc1cc(F)c(=O)n(CC(F)F)c1)c1cc(C#Cc2ccc3cncn3c2)c(Cl)s1` [Compound 96d], the IC50 is greater than 10000 nM in the assay on H358 cells, 4440 nM with A549 cells, 97.3 nM against FL-SMARCA4 (FL-SMARCA4 IC50) and 38.1 nM in assay [1] (setting [2]).
Consider `O=C(Nc1cc(F)c(=O)n(CC(F)F)c1)c1cc(C#Cc2ccn(-c3ccccn3)c(=O)c2)c(Cl)s1` [Compound 97d], for which the IC50 in the assay with H358 cells is greater than 10000 nM; with A549 cells, greater than 10000 nM; against FL-SMARCA4 (FL-SMARCA4 IC50) it was 3380 nM; in assay [1] (setting [2]), 2700 nM.
As for `CS(=O)(=O)c1cccc(C#Cc2cc(C(=O)Nc3cc(F)c(=O)n(CC(F)F)c3)sc2Cl)c1` [Compound 98c], the IC50 in the assay with H358 cells is greater than 10000 nM; with A549 cells, 3300 nM; against FL-SMARCA4 (setting [3]), 287 nM; in assay [1] (Table 3c.1), 108 nM.
Consider `CNS(=O)(=O)c1cccc(C#Cc2cc(C(=O)Nc3cc(F)c(=O)n(CC(F)F)c3)sc2Cl)c1` [Compound 99c], for which the IC50 in the assay on H358 cells was greater than 10000 nM; in the assay on A549 cells it was 1700 nM; against FL-SMARCA4 (setting [3]), 80.1 nM; in assay [1] (Table 3c.1) it was 40.6 nM.
As for `O=C(Nc1cc(F)c(=O)n(CC(F)F)c1)c1cc(C#CC2CCS(=O)(=O)CC2)c(Cl)s1` [Compound 99d], the IC50 in the assay on H358 cells is greater than 10000 nM; in the assay with A549 cells it was 6680 nM; against FL-SMARCA4 (FL-SMARCA4 IC50), 244 nM; in assay [1] (setting [2]), 195 nM.
With `N#Cc1ncc(C#Cc2cc(C(=O)Nc3cc(F)c(=O)n(CC(F)F)c3)sc2Cl)o1` [Compound 100d], the IC50 is 6240 nM in the assay on H358 cells, 4350 nM in the assay with A549 cells, 8.53 nM against FL-SMARCA4 (FL-SMARCA4 IC50) and 6.06 nM in assay [1] (setting [2]).
With `O=C(Nc1cc(F)c(=O)n(CC(F)F)c1)c1cc(C#CC2OCCCO2)c(Cl)s1` [Compound 101d], the IC50 was greater than 10000 nM with H358 cells, 3740 nM in the assay on A549 cells, 285 nM against FL-SMARCA4 (FL-SMARCA4 IC50) and 166 nM in assay [1] (setting [2]).
For the compound `N#Cc1sc(C(=O)Nc2cc(F)c(=O)n(CC(F)F)c2)cc1C#CC1CCOCC1` [Compound 102d], the IC50 in the assay with H358 cells was greater than 10000 nM; with A549 cells, 1050 nM; against FL-SMARCA4 (FL-SMARCA4 IC50), 46.4 nM; in assay [1] (setting [2]) it was 19.4 nM.
Taken in the same sequence, the figures for `N#Cc1cc(C(=O)Nc2cc(OC(F)(F)F)c(=O)n(CC(F)F)c2)sc1C(F)(F)F` [Compound 103d] were greater than 10000 nM, greater than 10000 nM, greater than 50000 nM and greater than 50000 nM.
For `N#Cc1sc(C(=O)Nc2cc(F)c(=O)n(CC(F)F)c2)cc1C#C[C@H]1C[C@H](O)C1` [Compound 104d], the IC50 in the assay on H358 cells is greater than 10000 nM; with A549 cells, 4370 nM; against FL-SMARCA4 (FL-SMARCA4 IC50) it was 82 nM; in assay [1] (setting [2]), 30 nM.
In the same order, the values of `N#Cc1sc(C(=O)Nc2cc(F)c(=O)n(CC(F)F)c2)cc1C#C[C@H]1C[C@@H](O)C1` [Compound 105d] are greater than 10000 nM, 4300 nM, 90.6 nM and 31.4 nM.
For `O=C(Nc1cc(F)c(=O)n(CC(F)F)c1)c1cc(C#CC2CCNC2)c(Cl)s1` (stereo not shown) [Compound 106d], the IC50 in the assay on H358 cells is greater than 10000 nM; in the assay with A549 cells, greater than 10000 nM; against FL-SMARCA4 (FL-SMARCA4 IC50) it was 5630 nM; in assay [1] (setting [2]), 2180 nM.
For `O=C(Nc1cc(F)c(=O)n(CC(F)F)c1)c1cc(C#CC2CCCN2)c(Cl)s1` (stereo not shown) [Compound 107d], the IC50 in the assay with H358 cells is greater than 10000 nM; in the assay on A549 cells, greater than 10000 nM; on FL-SMARCA4 (FL-SMARCA4 IC50) it was 1540 nM; in assay [1] (setting [2]) it was 572 nM.
Turning to `O=C(Nc1cc(F)c(=O)n(CC(F)F)c1)c1cc(C#CC2CCCNC2)c(Cl)s1` (stereo not shown) [Compound 108d], the IC50 with H358 cells was greater than 10000 nM; in the assay with A549 cells it was greater than 10000 nM; against FL-SMARCA4 (FL-SMARCA4 IC50), 1780 nM; in assay [1] (setting [2]), 542 nM.
For the compound `O=C(Nc1cc(F)c(=O)n(CC(F)F)c1)c1cc(C#CC2CNCCO2)c(Cl)s1` (stereo not shown) [Compound 109d], the IC50 is greater than 10000 nM in the assay with H358 cells, greater than 10000 nM with A549 cells, 3160 nM at FL-SMARCA4 (FL-SMARCA4 IC50) and 1060 nM in assay [1] (setting [2]).
On to `O=C(Nc1cc(F)c(=O)n(CC(F)F)c1)c1cc(C#CC2CCN(CC(F)(F)F)C2)c(Cl)s1` (stereo not shown) [Compound 110d], for which the IC50 in the assay with H358 cells is greater than 10000 nM; in the assay with A549 cells, greater than 10000 nM; at FL-SMARCA4 (FL-SMARCA4 IC50), 4610 nM; in assay [1] (setting [2]) it was 1470 nM.
Consider `NC(=O)c1nc(C#Cc2cc(C(=O)Nc3cc(F)c(=O)n(CC(F)F)c3)sc2Cl)cs1` [Compound 111c], for which the IC50 with H358 cells is greater than 10000 nM; in the assay with A549 cells, 1950 nM; against FL-SMARCA4 (setting [3]), 26.5 nM; in assay [1] (Table 3c.1) it was 10.5 nM.
Consider `NCCOCC#Cc1cc(C(=O)Nc2cc(F)c(=O)n(CC(F)F)c2)sc1Cl` [Compound 111d], for which the IC50 in the assay on H358 cells was greater than 10000 nM; with A549 cells it was greater than 10000 nM; against FL-SMARCA4 (FL-SMARCA4 IC50), 5100 nM; in assay [1] (setting [2]), 1700 nM.
Regarding `O=C(Nc1cc(F)c(=O)n(CC(F)F)c1)c1cc(-c2ccco2)c(Cl)s1` [Compound 112d], the IC50 is greater than 10000 nM with H358 cells, 9960 nM in the assay with A549 cells, 2140 nM against FL-SMARCA4 (FL-SMARCA4 IC50) and 345 nM in assay [1] (setting [2]).
Turning to `O=C(Nc1cc(F)c(=O)n(CC(F)F)c1)c1cc(C#Cc2c[nH]cn2)c(Cl)s1` [Compound 113c], the IC50 in the assay on H358 cells is greater than 10000 nM; with A549 cells it was 4030 nM; against FL-SMARCA4 (setting [3]) it was 111 nM; in assay [1] (Table 3c.1), 34.5 nM.
`CN1CC(C#Cc2cc(C(=O)Nc3cc(F)c(=O)n(CC(F)F)c3)sc2Cl)CC1=O` (stereo not shown) [Compound 113d]: the IC50 in the assay on H358 cells was greater than 10000 nM; in the assay on A549 cells it was greater than 10000 nM; against FL-SMARCA4 (FL-SMARCA4 IC50), 2880 nM; in assay [1] (setting [2]), 967 nM.
As for `O=C(Nc1cc(F)c(=O)n(CC(F)F)c1)c1cc(C#CC2COCCO2)c(Cl)s1` (stereo not shown) [Compound 114d], the IC50 in the assay with H358 cells was greater than 10000 nM; with A549 cells, 2730 nM; against FL-SMARCA4 (FL-SMARCA4 IC50), 372 nM; in assay [1] (setting [2]), 112 nM.

The values above are taken from patent US20220356174A1, “PYRIDIN-2-ONE COMPOUNDS USEFUL AS SMARCA2 ANTAGONISTS” (Epizyme, Inc., priority 2018, published 2022).
